Test results published in patent publication US11389447B2 (Janssen Sciences Ireland Unlimited Company, priority 2006, dated 2022).
Like-named read-outs stand apart in the source and are kept apart here.

Assay: Kinetic study: plasma kinetics of TMC278 after single IM or SC injection of a nanosuspension;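 note: healthy male beagle dogs injected in both biceps femoris muscles (IM) or both thoracal sides (SC), total volume 0.2 mL/kg, drug measured in plasma from blood samples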
Format: in vivo, male beagle dogs
Conditions: 5 mg/kg; for AUC(0-t) / Cmax / Tmax / concentration at 0 h / concentration at 1 h / concentration at 3 h / concentration at 8 h / concentration at 24 h / concentration at 48 h / concentration at 72 h / concentration at 144 h / concentration at 192 h / concentration at 240 h / concentration at 312 h / concentration at 384 h / concentration at 480 h / concentration at 648 h / concentration at 696 h / concentration at 864 h / concentration at 1032 h / concentration at 1200 h / concentration at 1368 h / concentration at 1536 h / concentration at 1704 h / concentration at 1872 h / concentration at 2040 h / concentration at 2208 h: male, beagle, dog, plasma; for AUC(0-t) / Cmax / Tmax: im, single IM 5 mg/kg TMC278 nanosuspension; for Cmax: read-out: Cmax; for Tmax: read-out: Tmax; for concentration at 0 h / concentration at 1 h / concentration at 3 h / concentration at 8 h / concentration at 24 h / concentration at 48 h / concentration at 72 h / concentration at 144 h / concentration at 192 h / concentration at 240 h / concentration at 312 h / concentration at 384 h / concentration at 480 h / concentration at 648 h / concentration at 696 h / concentration at 864 h / concentration at 1032 h / concentration at 1200 h / concentration at 1368 h / concentration at 1536 h / concentration at 1704 h / concentration at 1872 h / concentration at 2040 h / concentration at 2208 h: intramuscular, plasma concentration of TMC278, single IM 5 mg/kg TMC278 nanosuspension
Protocol: Six healthy male beagle dogs with body weights ranging from 8 to 16 kg at the start of the study, were used. Each dog was identified by an ear tattoo number. Two dogs were dosed intramuscularly (IM) in the left and right m. biceps femoris (treatment group A). […] Two dogs were dosed subcutaneously (SC) in the left and right thoracal region. The injection volume was 2×0.1 ml/kg in all treatment groups. A 20 G needle was used.
Blood samples of 3 ml were taken from the left jugular vein from all dogs on day 0 at 0 h (predose), 20 min, 1 h, 3 h, 8 h and 24 h post-dose and further on days 2, 3, 6, 8, 10, 13, 16, 20, 23, 27, 29, 36, 43, 50, 57, 64, 71, 78, 85 and 92 at approximately 8 AM. Blood samples were placed on EDTA, EDTA Vacuette Greiner, Cat. No. 454086, Greiner Labortechnik N.V.). Within 2 h of blood sampling, samples were centrifuged at room temperature at about 1900×g for 10 minutes to allow plasma separation. Plasma was immediately transferred into a second tube and stored in the freezer within 2 hours after the start of centrifugation.

Cc1cc(C=CC#N)cc(C)c1Nc1ccnc(Nc2ccc(C#N)cc2)n1 [TMC278, 4-[[4-[[4-(2-cyanoethenyl)-2,6-dimethylphenyl]amino]-2-pyrimidinyl]amino]benzonitrile]
blood plasma levels after injection (in words) (injectable formulation of nanonised substance, male beagle dogs): stable blood plasma levels during a prolonged period of time
AUC(0-t) (dog 17264, read-out: AUC0-312 h): 27400 ng·h/mL
AUC(0-t) (dog 17264, read-out: AUC0-696 h): 34800 ng·h/mL
AUC(0-t) (dog 17264, read-out: AUC0-2208 h): 40500 ng·h/mL
Cmax (dog 17264): 159 ng/mL
Tmax (dog 17264): 48 h
AUC(0-t) (dog 18186, read-out: AUC0-312 h): 26600 ng·h/mL
AUC(0-t) (dog 18186, read-out: AUC0-696 h): 33000 ng·h/mL
AUC(0-t) (dog 18186, read-out: AUC0-2208 h): 38200 ng·h/mL
Cmax (dog 18186): 186 ng/mL
AUC(0-t) (mean of 2 dogs, read-out: AUC0-312 h): 27000 ng·h/mL
AUC(0-t) (mean of 2 dogs, read-out: AUC0-696 h): 33900 ng·h/mL
AUC(0-t) (mean of 2 dogs, read-out: AUC0-2208 h): 39400 ng·h/mL
Cmax (mean of 2 dogs): 173 ng/mL
Tmax (mean of 2 dogs): 24 h
concentration at 0 h (dog 17264, 0 h (d0, predose)): < 1 ng/mL
concentration at 1 h (dog 17264, 1 h): 110 ng/mL
concentration at 3 h (dog 17264, 3 h): 131 ng/mL
concentration at 8 h (dog 17264, 8 h): 130 ng/mL
concentration at 24 h (dog 17264, 24 h (d1)): 150 ng/mL
concentration at 48 h (dog 17264, 48 h (d2)): 159 ng/mL
concentration at 72 h (dog 17264, 72 h (d3)): 115 ng/mL
concentration at 144 h (dog 17264, 144 h (d6)): 86.2 ng/mL
concentration at 192 h (dog 17264, 192 h (d8)): 72.4 ng/mL
concentration at 240 h (dog 17264, 240 h (d10)): 56.7 ng/mL
concentration at 312 h (dog 17264, 312 h (d13)): 33.4 ng/mL
concentration at 384 h (dog 17264, 384 h (d16)): 23.9 ng/mL
concentration at 480 h (dog 17264, 480 h (d20)): 20.5 ng/mL
concentration at 648 h (dog 17264, 648 h (d27)): 11.4 ng/mL
concentration at 696 h (dog 17264, 696 h (d29)): 11.3 ng/mL
concentration at 864 h (dog 17264, 864 h (d36)): 7.33 ng/mL
concentration at 1032 h (dog 17264, 1032 h (d43)): 5.19 ng/mL
concentration at 1200 h (dog 17264, 1200 h (d50)): 3.4 ng/mL
concentration at 1368 h (dog 17264, 1368 h (d57)): 3 ng/mL
concentration at 1536 h (dog 17264, 1536 h (d64)): 2.84 ng/mL
concentration at 1704 h (dog 17264, 1704 h (d71)): 2.48 ng/mL
concentration at 1872 h (dog 17264, 1872 h (d78)): 1.79 ng/mL
concentration at 2040 h (dog 17264, 2040 h (d85)): 1.99 ng/mL
concentration at 2208 h (dog 17264, 2208 h (d92)): 1.56 ng/mL
concentration at 0 h (dog 18186, 0 h (d0, predose)): < 1 ng/mL
concentration at 1 h (dog 18186, 1 h): 82.6 ng/mL
concentration at 3 h (dog 18186, 3 h): 145 ng/mL
concentration at 8 h (dog 18186, 8 h): 136 ng/mL
concentration at 24 h (dog 18186, 24 h (d1)): 120 ng/mL
concentration at 48 h (dog 18186, 48 h (d2)): 132 ng/mL
concentration at 72 h (dog 18186, 72 h (d3)): 99.6 ng/mL
concentration at 144 h (dog 18186, 144 h (d6)): 91.9 ng/mL
concentration at 192 h (dog 18186, 192 h (d8)): 75.5 ng/mL
concentration at 240 h (dog 18186, 240 h (d10)): 62.5 ng/mL
concentration at 312 h (dog 18186, 312 h (d13)): 38 ng/mL
concentration at 384 h (dog 18186, 384 h (d16)): 20.6 ng/mL
concentration at 480 h (dog 18186, 480 h (d20)): 16.6 ng/mL
concentration at 648 h (dog 18186, 648 h (d27)): 9.08 ng/mL
concentration at 696 h (dog 18186, 696 h (d29)): 11.2 ng/mL
concentration at 864 h (dog 18186, 864 h (d36)): 6.44 ng/mL
concentration at 1032 h (dog 18186, 1032 h (d43)): 5.18 ng/mL
concentration at 1200 h (dog 18186, 1200 h (d50)): 3.25 ng/mL
concentration at 1368 h (dog 18186, 1368 h (d57)): 3 ng/mL
concentration at 1536 h (dog 18186, 1536 h (d64)): 2.44 ng/mL
concentration at 1704 h (dog 18186, 1704 h (d71)): 1.84 ng/mL
concentration at 1872 h (dog 18186, 1872 h (d78)): 1.45 ng/mL
concentration at 2040 h (dog 18186, 2040 h (d85)): 1.61 ng/mL
concentration at 2208 h (dog 18186, 2208 h (d92)): 1.25 ng/mL
concentration at 0 h (mean of 2 dogs, 0 h (d0, predose)): < 1 ng/mL
concentration at 1 h (mean of 2 dogs, 1 h): 96.3 ng/mL
concentration at 3 h (mean of 2 dogs, 3 h): 138 ng/mL
concentration at 8 h (mean of 2 dogs, 8 h): 133 ng/mL
concentration at 24 h (mean of 2 dogs, 24 h (d1)): 135 ng/mL
concentration at 48 h (mean of 2 dogs, 48 h (d2)): 146 ng/mL
concentration at 72 h (mean of 2 dogs, 72 h (d3)): 107 ng/mL
concentration at 144 h (mean of 2 dogs, 144 h (d6)): 89.1 ng/mL
concentration at 192 h (mean of 2 dogs, 192 h (d8)): 74 ng/mL
concentration at 240 h (mean of 2 dogs, 240 h (d10)): 59.6 ng/mL
concentration at 312 h (mean of 2 dogs, 312 h (d13)): 35.7 ng/mL
concentration at 384 h (mean of 2 dogs, 384 h (d16)): 22.3 ng/mL
concentration at 480 h (mean of 2 dogs, 480 h (d20)): 18.6 ng/mL
concentration at 648 h (mean of 2 dogs, 648 h (d27)): 10.2 ng/mL
concentration at 696 h (mean of 2 dogs, 696 h (d29)): 11.3 ng/mL
concentration at 864 h (mean of 2 dogs, 864 h (d36)): 6.89 ng/mL
concentration at 1032 h (mean of 2 dogs, 1032 h (d43)): 5.19 ng/mL
concentration at 1200 h (mean of 2 dogs, 1200 h (d50)): 3.33 ng/mL
concentration at 1368 h (mean of 2 dogs, 1368 h (d57)): 3 ng/mL
concentration at 1536 h (mean of 2 dogs, 1536 h (d64)): 2.64 ng/mL
concentration at 1704 h (mean of 2 dogs, 1704 h (d71)): 2.16 ng/mL
concentration at 1872 h (mean of 2 dogs, 1872 h (d78)): 1.62 ng/mL
concentration at 2040 h (mean of 2 dogs, 2040 h (d85)): 1.8 ng/mL
concentration at 2208 h (mean of 2 dogs, 2208 h (d92)): 1.41 ng/mL
